Laboratory results as given in BindingDB's records for doi:10.1021/jm034065z (Pfizer, 2003).
pIC50: −log10 of the molar value.

Biological target: Aldo-keto reductase family 1 member B1 (Homo sapiens, UniProt P15121)
Assay: In Vitro Aldose Reductase Inhibition Assay
Details: pH 7; 24 °C
Procedure: The activity of the enzyme was determined spectrophotometrically by monitoring the change in absorbance at 340 nm, which is due to the disappearance of NADPH. Inhibition by test compound was measured as the percentage decrease in the rate of NADPH oxidation as compared to a sample without test compound. The determination of the IC50 values was performed by using linear regression analysis of the log dose response curve.

Row | SMILES | pIC50
1 | O=c1ccc(S(=O)(=O)c2cc3ccccc3o2)n[nH]1 | 6.82
2 | O=c1ccc(S(=O)(=O)c2cc3cc(Cl)ccc3o2)n[nH]1 | 7.60
